The text below walks through data of PubChem BioAssay (NCI).

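These data come from cells grown in 96-well plates and exposed to compound for 48 hours at five concentrations. GI50 marks 50% less growth. TGI denotes the concentration required for complete inhibition of growth.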

Some test systems named below: HCC-2998 colon; OVCAR-5 ovarian; T-47D breast; MDA-MB-231 breast; DU-145 prostate; SK-MEL-2 melanoma; KM12 colon; HCT-15 colon; PC-3 prostate; SK-MEL-5 melanoma.
Common to all, as to assay: inhibition of tumour cell growth, NCI panel, 48 h

For `CC(ONC(=O)c1cc(C(F)(F)F)cc(C(F)(F)F)c1)C(=O)Nc1ccc(Cl)cc1` (stereo not given), the GI50 in the assay on HCC-2998 colon is 4.16 µM; in the assay with OVCAR-5 ovarian it was 5.53 µM; in the assay on T-47D breast, 3.78 µM; with MDA-MB-231 breast, 8.7 µM; in the assay with DU-145 prostate it was 11.5 µM; with SK-MEL-2 melanoma, 3.65 µM. The GI50 with KM12 colon is 5 µM; in the assay with HCT-15 colon, 4.98 µM; with PC-3 prostate it was 3.63 µM; in the assay with SK-MEL-5 melanoma it was 2.79 µM. In addition, the TGI was 17 µM with HCC-2998 colon; 25.1 µM in the assay with OVCAR-5 ovarian; above 60.8 µM in the assay on T-47D breast; 36.5 µM with MDA-MB-231 breast; above 100 µM with DU-145 prostate; 15.2 µM in the assay with SK-MEL-2 melanoma. Besides, the TGI in the assay on KM12 colon came out at 29.4 µM; with HCT-15 colon it was 20 µM; in the assay on PC-3 prostate, 18.4 µM; in the assay with SK-MEL-5 melanoma, 7.86 µM.

With `O=C1/C(=C/c2ccccc2Cl)N=C(c2ccccc2)N1Cc1ccco1`, the GI50 is 43.2 µM in the assay with HCC-2998 colon; above 100 µM with OVCAR-5 ovarian; 53.2 µM with T-47D breast; 19.7 µM with MDA-MB-231 breast; 69.2 µM with DU-145 prostate; 28.1 µM in the assay on SK-MEL-2 melanoma. Moreover, the GI50 is 36.1 µM in the assay on KM12 colon, 25.5 µM with HCT-15 colon, 39 µM in the assay with PC-3 prostate and 17.9 µM with SK-MEL-5 melanoma. Moreover, the TGI is above 100 µM in the assay on HCC-2998 colon; above 100 µM with OVCAR-5 ovarian; above 100 µM in the assay on T-47D breast; above 100 µM in the assay on MDA-MB-231 breast; above 100 µM in the assay with DU-145 prostate; 55.1 µM in the assay on SK-MEL-2 melanoma. Also, the TGI is above 100 µM in the assay on KM12 colon, above 100 µM in the assay with HCT-15 colon, above 100 µM with PC-3 prostate and 36.3 µM in the assay with SK-MEL-5 melanoma.

In the case of `COc1ccc(C(O)CNC(=O)c2ccccc2)cc1` (stereo not given), the TGI in the assay with HCC-2998 colon, in the assay on OVCAR-5 ovarian, in the assay on T-47D breast, in the assay on MDA-MB-231 breast, with DU-145 prostate and in the assay with SK-MEL-2 melanoma was above 100 µM each time. The TGI in the assay on KM12 colon, in the assay on HCT-15 colon, in the assay on PC-3 prostate and in the assay on SK-MEL-5 melanoma was above 100 µM throughout.

`O=S1(=O)CCN(Cc2ccccn2)CC1`: the TGI with HCC-2998 colon, in the assay with OVCAR-5 ovarian, in the assay with T-47D breast, with MDA-MB-231 breast, in the assay on DU-145 prostate and in the assay with SK-MEL-2 melanoma was above 100 µM throughout. For the same compound, the TGI in the assay with KM12 colon, in the assay on HCT-15 colon, in the assay with PC-3 prostate and with SK-MEL-5 melanoma was above 100 µM in each case.

As for `COC(=O)c1ccccc1NC(=O)/C(=N\NC(C)(C)C)C(C#N)c1nc(-c2ccc([N+](=O)[O-])cc2)cs1` (stereo not given), the TGI with HCC-2998 colon, with OVCAR-5 ovarian, in the assay with T-47D breast, in the assay on MDA-MB-231 breast, in the assay on DU-145 prostate and in the assay with SK-MEL-2 melanoma was above 100 µM in each case. The TGI in the assay on KM12 colon, with HCT-15 colon, in the assay on PC-3 prostate and in the assay on SK-MEL-5 melanoma was above 100 µM each time.

For the compound `CC(=O)O[C@@H]1CO[C@H]2O[C@H]3[C@@H](C(C=O)=C[C@H](O)[C@@H]4C5=C(C(C)C)CC[C@]5(C)CC[C@@]34C)[C@@]2(O)C1=O`, the TGI in the assay with HCC-2998 colon is 1.27 µM; with OVCAR-5 ovarian, 1.12 µM; in the assay with T-47D breast, 0.378 µM; in the assay on MDA-MB-231 breast, 0.407 µM; with DU-145 prostate, 2.02 µM; in the assay with SK-MEL-2 melanoma it was 0.596 µM. Moreover, the TGI in the assay on KM12 colon is 1.46 µM; in the assay with HCT-15 colon it was 0.687 µM; with PC-3 prostate it was 0.368 µM; in the assay on SK-MEL-5 melanoma, 0.577 µM.

For `CCCCCCCCCCCCCCCC(=O)OCC(O)C1OC(=O)C(O)=C1O` (stereo not given), the TGI in the assay on HCC-2998 colon is above 100 µM; in the assay on OVCAR-5 ovarian it was 95.4 µM; with T-47D breast, above 100 µM; with MDA-MB-231 breast, 54.2 µM; in the assay on DU-145 prostate it was above 100 µM; in the assay with SK-MEL-2 melanoma, above 100 µM. The TGI is 53 µM in the assay on KM12 colon, above 100 µM in the assay with HCT-15 colon, above 100 µM in the assay on PC-3 prostate and above 100 µM with SK-MEL-5 melanoma.
